Experimental data from PMC6290777, “Inhalation of the prodrug PI3K inhibitor CL27c improves lung function in asthma and fibrosis” (Nature Communications, 2018).

Tests used:
[1] = system: bleomycin-induced lung fibrosis; assay: Bleomycin-induced lung injury and fibrosis in mice; format: in vivo, C57BL/6J mice
Experimental: Eight-to-ten-week-old C57BL/6J males were used in bleomycin-induced lung injury and fibrosis model[10],[51]. Briefly, a single 40 µl injection containing 3.75 or 2 mg/kg of bleomycin sulfate (Sigma Aldrich-MERCK #B1141000) diluted in PBS or PBS only (vehicle) was instilled intratracheally. […]
Levels of hydroxyproline in lung tissues were measured using the Hydroxyproline Assay kit (Sigma-Audrich, St. Louis, MO, USA) according to the manufacturer’s instructions. Briefly, 10 mg of pulverized frozen lungs homogenized in 100 µL of concentrated hydrochloric acid (HCl, 12 M), and hydrolyzed at 120 °C for 3 h. Then, 5 µL of each sample in triplicate were used to the assay. […] The absorbance was obtained at 560 nm. The final results are expressed as concentration of hydroxyproline in µg/mL.
The left lung was removed and fixed in 4% neutral phosphate-buffered formalin (pH 7.4)[10]. The tissues were dehydrated gradually in ethanol, embedded in paraffin, cut into 4 µm sections, stained with H&E, Gomori’s trichrome and periodic acid schiff (PAS), and examined under light microscopy by a pathologist in a double blinded manner. Images of lung sections were captured with a digital camera (Optronics DEI-470) connected to a microscope (Olympus IX70) with a magnification of ×40 or ×100. Inflammation was scored according to modification of existing protocols[53] and to the histopathology criteria reported in Supplementary Table 4. […]
For quantitative measurements, total RNA was extracted from lung tissues using the High Pure RNA isolation kit (Invitrogen, Life Technologies, Paisley, UK) and reverse-transcribed with the Superscript first-strand synthesis system kit (Invitrogen, Life Technologies, Paisley, UK). Specific mRNA sequences were quantified by real-time PCR with primer/probe combinations based on the Roche Universal ProbeLibrary Set, Mouse (Tgfb1 probe: #72, Ctgf probe: #71, Col1a1 probe: #15 and Mmp2 probe #49). Primer sequences are listed in Supplementary Table 5.

[2] = system: Akt phosphorylation (Ser473) in lung, heart, liver; assay: Insulin stimulation analysis in liver, heart, and lung (pAkt); format: in vivo, mice; settings: inhaled CL27c 2 mg/ml 30 min; insulin 1 UI/kg i.p.
Experimental: Animals were fasted overnight and, the day after, they were treated for 30 min with aerosolized CL27c (2 mg/ml in 0.5 % tylaxopol/saline solution). After 1 h from the CL27c treatment mice were administrated with insulin (1.0 UI kg^−1 diluted in PBS solution, Actrapid, Novo Nordisk, i.p. injection). Ten min after injection, the animals where sacrificed and tissues removed, frozen in liquid nitrogen, and homogenized in lysis buffer (50 mM Tris-HCl, pH = 8, 150 mM NaCl, 1% Triton X-100) supplemented with 50 mM NaF, 2 mM sodium orthovanadate, 1 mM sodium pyro-phosphate, and protease inhibitor cocktail (Roche).
Lung, liver, and heart samples were collected for western blot detection of akt phosphorilation levels. Protein samples were resolved by 10% SDS-PAGE and transferred on to PVDF (Immobilon™-P) membranes. The membranes were blocked with 5% BSA in 1x TBS with 0.3% Tween 20 for 30 min at […]. Then, the membranes were incubated overnight at 4 °C with primary antibodies (phosphorylated Akt serine 473, 1:1000, Cell Signaling Technology, Cat. Number 4060) and 1 h with HRP-conjugated secondary antibody (1:10000). […] For quantification, specific phosphorylation was calculated as the ratio of signals for phosphorylated Akt to the signal of total Akt detected. […]

[3] = late treatment, day 17 to day 27
[4] = moderate model, bleomycin 2 mg/kg, aerosolized CL27c 2 mg/ml
[5] = moderate model, therapeutic aerosolized CL27c
[6] = severe model, bleomycin 3.75 mg/kg

## COC(=O)c1cccc(Cn2cc(-c3cccc4c(=O)cc(N5CCOCC5)[nH]c34)nn2)c1 [CL27c]
[1]; bleomycin model
  Akt phosphorylation in lung protein extracts and sections: blunted the increase of Akt phosphorylation
[1]; [3]
  lung function: improved lung function
  mortality: significantly blunts mortality
[1]; late treatment, day 17 to day 27 after bleomycin 2 mg/kg
  fibrotic collagen deposition: still effective in reducing fibrotic collagen deposition
[1]; moderate model
  lung elasticity (pulmonary compliance) restored, relative to controls: 75 % of controls
  lung resistance: reduce the gain in lung resistance almost to the level of healthy mice
[1]; moderate model, 22 days after instillation, bleomycin alone 50% mortality
  survival: 100%
[1]; moderate model, bleomycin 2 mg/kg
  fibrotic remodeling (Ashcroft score, collagen content): significantly reduce fibrotic remodeling
[1]; [4]
  abundance of active TGF-β1: significantly decreased the abundance of active TGF-β1
  mRNA levels of Tgfb1, Ctgf, Col1a1, Mmp2: attenuated mRNA levels of Tgfb1
  neutrophil-derived MPO levels in the lungs: markedly reduced
[1]; moderate model, bleomycin 2 mg/kg, aerosolized CL27c 2 mg/ml day 10 to 21
  airway inflammation (BALF cells): markedly reduced airway inflammation
[1]; moderate model, day 22
  histopathological inflammation score: significantly attenuated in airways, vasculature, and parenchyma
[1]; [5]
  TLC, inspiratory capacity, forced vital capacity, and FEV: significant recovery back to normal levels
  pressure–volume curve: significantly improved the pressure–volume curve
[1]; [6]
  hydroxyproline deposition in lungs: significantly decreased hydroxyproline deposition in lungs
  infiltration of macrophages and neutrophils: reduced infiltration of either macrophages or neutrophils
[1]; severe model, bleomycin 3.75 mg/kg, CL27c could not protect
  mortality within 21 days: 100%
[2]
  insulin-evoked Akt phosphorylation (Ser473) in lungs: did not show elevation of protein kinase B (Akt) phosphorylation
  insulin-evoked Akt phosphorylation in heart or liver: insulin was able to normally increase Akt phosphorylation
